Reference: paper PMC11681865, “Oligomerization of protein arginine methyltransferase 1 and its functional impact on substrate arginine methylation” (The Journal of Biological Chemistry, 2024)
Entries after “also recorded” stand apart in the source; their conditions may differ.

Key:
[1] = molecular target: Human PRMT1 (11-353), His-MBP tag removed (human)
PRMT1 [2] = molecular target: T1, PRMT1 (Homo sapiens, UniProt Q99873); experiment: Dynamic light scattering of PRMT1 oligomers; type: physicochemical; details: pH 8, 25 °C; for disruption of PRMT1 oligomers by denaturant: 6 M guanidine hydrochloride or 5 M guanidine thiocyanate
T1 construct: human PRMT1 protein (amino acid residue 11–353); His6; made in house
T1 sequence (Q99873 11-353 isoform Q99873-3): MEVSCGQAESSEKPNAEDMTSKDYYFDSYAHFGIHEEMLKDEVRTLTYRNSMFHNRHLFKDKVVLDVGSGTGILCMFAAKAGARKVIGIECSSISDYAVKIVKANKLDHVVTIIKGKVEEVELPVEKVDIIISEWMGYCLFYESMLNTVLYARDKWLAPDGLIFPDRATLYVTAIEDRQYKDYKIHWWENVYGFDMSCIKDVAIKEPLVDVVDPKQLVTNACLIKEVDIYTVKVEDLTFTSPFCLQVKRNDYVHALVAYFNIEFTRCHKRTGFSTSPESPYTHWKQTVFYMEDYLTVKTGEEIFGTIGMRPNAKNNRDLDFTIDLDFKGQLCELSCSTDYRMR
Source text: Dynamic light scattering (DLS) uses a laser to measure the particle size distribution ([26]). The DLS can give information regarding the heterogeneity of protein in a sample ([27]). In the past, DLS was used to study microbial and viral structure ([28]). Nowadays, DLS is a popular method for studying nanoparticles, liposomes, and exosomes ([29], [30], [31], [32]). Researchers have also used DLS to study the protein folding of bovine serum albumin ([33]). Therefore, we envisage that the DLS can be utilized to analyze the size changes of PRMT1 oligomeric compositions in an aqueous solution. We expect to see an increase in size with increasing protein concentrations. The prepared PRMT1 protein at varied concentrations was allowed to incubate in the aqueous buffer for equilibrium on ice for 10 min. The protein solution was filtered with 0.2-micron filter to remove any big interfering particles. The protein size was analyzed using a Malvern Zetasizer instrument. We took an average of three runs with about 25 scans each time to evaluate the data. […] Guanidine hydrochloride is a popular protein denaturant ([34]). […] As a negative control, we incubated PRMT1 in the presence of 6 M guanidine hydrochloride to disrupt oligomer formation. […] A literature reported that guanidine thiocyanate is a stronger denaturant than guanidine hydrochloride ([35]).
Figure 2 Oligomerization of PRMT1 detection by dynamic light scattering. Various concentrations of PRMT1 were incubated on ice for 10 min, then filtered by 0.2-micron syringe filter and collected data from the DLS. The top line with black circle indicates PRMT1 without denaturant. The open triangle and hexagon lines indicated PRMT1 oligomeric structure disrupted by 6 M guanidine hydrochloride and 5 M guanidine thiocyanate, respectively.
Indicated concentrations of PRMT1 were incubated for 10 min on ice with buffer (50 mM Hepes pH 8, 10 mM NaCl, 0.5 mM EDTA, 0.5 mM DTT) and filtered through the 0.22 μm syringe filter. For the experiment to disrupt the oligomer formation, 6 M of guanidine hydrochloride or 5 M of guanidine thiocyanate was added to the reaction. The samples were injected into the 1 ml disposable cuvette and measured by Zetasizer Nano ZS (Malvern Instruments) at 25 °C. Three measurements of 25 scans each were collected to average. The data was analyzed by the Malvern Zetasizer software v7.10.

PRMT1-WT [3] = molecular target: T2, PRMT1-WT (Homo sapiens, UniProt Q99873); experiment: Steady-state kinetics, radiometric filter-binding assay, PRMT1-WT; type: biochemical
T2 construct: His-MBP (N, cleaved yes); made in house; host or cells: Escherichia coli BL21 (DE3) RIPL
T2 sequence (Q99873 11-353 isoform Q99873-3): as above
Source text: To gain further insights into the effect of oligomerization on the PRMT1 activity, we measured the steady-state kinetic parameters of different peptide substrates under PRMT1 catalysis using the radiometric assay. […] A constant concentration of PRMT1-WT was mixed with various concentrations of peptide and a constant concentration of radioactive SAM. After quenching the reaction, the reaction mixture was loaded onto the P81 filter paper that was washed, air-dried, and soaked in scintillation cocktail for scintillation counting. The rates of methylation as a function of the peptide concentration were plotted in Figure 8A and fit with the Hill equation to obtain catalytic parameters kcat and K0.5 (Fig. 8B).
Figure 8 Steady state kinetic characterization of PRMT1 catalysis in oligomeric states. Radioactive kinetic parameters were measured using filter-binding assay. […] The reaction time was 15 min at 30 °C and quenched with 100% isopropanol. For the reaction with PRMT1-E153Q, 0.05 μM PRMT1-E153Q was incubated on ice with PRMT1 for 20 min equilibration before adding SAM and peptide. A, kinetic parameters of oligomeric states in graphical form. B, representation of the kinetic parameters in kcat, K0.5, and kcat/K0.5.
Each reaction sample was consisted of 0.05 μM PRMT1, 15 μM ^14C-SAM, and various concentrations of peptide. […]

PRMT1 [4] = molecular target: T1, PRMT1; experiment: Stopped-flow fluorescence dissociation of H4FL from PRMT1; type: binding; details: for koff: 1:25 dilution, pH 8.0, ex 498 / em 524, at least three shots averaged, single exponential
Source text: We next utilized the stopped-flow technique to measure the dissociation rates of peptide substrate from PRMT1 at different PRMT1 concentrations. We used a rapid dilution experiment with stopped flow fluorescence to measure the dissociation rate of H4 peptide from PRMT1. […] We reasoned that the changes of fluorescence intensity can be used to measure dissociation rate of H4 substrate. In the experiment, the H4FL was premixed with PRMT1 and loaded into the sample chamber of the stopped flow equipment. The mixture was rapidly mixed with an access buffer which initiated the dissociation of H4FL from PRMT1 on the millisecond scale. […] The averaged data curves were fitted to the single exponential equation to yield dissociation rate constant koff. The koff was 42.27 s^−1 at 0.5 μM of PRMT1, the koff was 22.29 s^−1at 1.5 μM of PRMT1, and the koff was 17.65 s^−1 at 5 μM of PRMT1 (Fig. 9D).
Figure 9 Oligomerization helps PRMT1 retain its substrate. The experiment was carried out by the SX20 stopped-flow spectrometers with (A) 0.5 μM, (B) 1.5 μM, and (C) 5 μM of PRMT1. The PRMT1 was premixed with 0.8 μM H4FL peptide. The mixture was diluted with the reaction buffer for a 1:25 dilution when the reaction was run. D, data summary of koff. TEXT PRINTED IN THE PICTURE: (D) no label printed: koff: 42.27 s^-1 (Concentration of PRMT1: 0.5 μM); koff: 22.29 s^-1 (Concentration of PRMT1: 1.5 μM); koff: 17.65 s^-1 (Concentration of PRMT1: 5 μM)
The trapping experiment to measure the dissociation rate of PRMT1 was carried out using the SX20 stopped-flow spectrometers (Applied Photophysics). The setting for excitation was 498 and emission was 524. A constant concentration of 0.8 μM of H4FL peptide (Peptide Sequence: Ac-[…]pr(FL)[…], in which FL stands for fluorescein) was pre-mix with 0.5 μM, 1.5 μM, and 5.0 μM of PRMT1. The mixture was loaded on the 100 μl drive syringe. Another 2.5 ml drive syringe was loaded with reaction buffer (50 mM Hepes pH 8.0, 10 mM NaCl, 0.5 mM EDTA, and 0.5 mM DTT) to create the 1:25 dilution factor. At least three shots were averaged for each reaction and fitted to the single exponential function. F is the fluorescence intensity, t is time, A is the amplitude of fluorescence, k is the dissociation rate constant, and C is the final value of fluorescence.(2) F=Aexp(−kt)+C

PRMT1-WT [5] = molecular target: T2, PRMT1-WT; experiment: Radiometric P81 filter-binding assay, PRMT1-WT concentration dependence; type: biochemical; details: 50 μM peptide, 2 μM [3H]-SAM and 48 μM SAM, 30 min, room temperature, pH 8.0
Source text: We used the phosphocellulose P81 filter paper–binding assay to measure the catalytic activity of PRMT1 at different concentrations on individual peptides. Each reaction mixture was composed of PRMT1-WT at varied concentrations, at fixed concentrations of SAM and peptide. The reaction mixture was quenched with isopropanol, transferred to the P81 filter paper, and washed with sodium bicarbonate buffer (pH 9). […] The measured count-per-minute (CPM) values correlated directly with the amounts of methylated peptide products. In a typical enzymatic catalysis, the product should be formed linearly as a function of enzyme concentration.
Various concentrations of PRMT1-WT were incubated with radioactive 2 μM [3H]-SAM and 48 μM SAM and 50 μM of indicated peptides for 30 min. The reaction was quenched with 100% isopropanol.
The reaction buffer consisted of 50 mM Hepes pH 8.0, 10 mM NaCl, 0.5 mM EDTA, and 0.5 mM DTT. The reaction was incubated at room temperature for 30 min after being initiated with ^3H-SAM SAM. An equal amount of 100% isopropanol to the total reaction volume was used to quench the reaction. The reaction liquid was transferred onto the phosphocellulose P81 filter paper (1.1 cm × 2 cm, Protein Chemistry & Metabolism Unit at St Vincent's Institute of Medical Research). The P81 filter papers containing the samples were left at room temperature for 30 min to airdry. […]

For “PRMT1-E153Q, catalytically inactive mutant (enzyme)”, the dimethylated R4me2 (MALDI-MS, percent relative to R4 peptide), 0.5 μM PRMT1-WT with 0 to 2 μM PRMT1-E153Q [1] was 5.85% and the monomethylated product R4me1 (MALDI-MS, percent relative to R4 peptide), 0.5 μM PRMT1-WT with 0 to 2 μM PRMT1-E153Q [1] was 20.2%.
With N#CS.N=C(N)N [guanidine thiocyanate] the “Z-average of PRMT1 in presence of denaturant” value (PRMT1 [2]; 5 M guanidine thiocyanate, average of three runs of 25 scans) was 1.27 nm and the “disruption of PRMT1 oligomers by denaturant” value (PRMT1 [2]) was “better at denaturing PRMT1 oligomers than guanine hydrochloride”.
Ac-SGRGKGGKGLGKGGAK [Ac-H4(1–16)] was tested, and the “K0.5 / binding comparison of Ac-H4(1–16) and longer H4 peptide” value (PRMT1-WT [3]) was “greater than Ac-H4(1–22); also recorded: weaker PRMT1 binding” and the “kcat, fold lower than Ac-H4(1–22)” value (PRMT1-WT [3]; Ac-H4(1–16) vs Ac-H4(1–22)) was 1.3 fold.
Compound “Ac-SGRGKGGKGDpr(FL)GKGGAKRHRK [H4FL, fluorescently labeled H4 peptide]” has a koff (PRMT1 [4]; 0.5 μM PRMT1, 0.8 μM H4FL) of 42.27 s⁻¹, a koff (PRMT1 [4]; 1.5 μM PRMT1, 0.8 μM H4FL) of 22.29 s⁻¹ and a koff (PRMT1 [4]; 5 μM PRMT1, 0.8 μM H4FL) of 17.65 s⁻¹. For the same compound, the “koff vs PRMT1 concentration / oligomeric state” value (PRMT1 [4]; 0.5, 1.5 and 5 μM PRMT1) was “the koff decreased as PRMT1 concentration increased; also recorded: smaller at higher oligomeric states”.
For Cl.N=C(N)N [guanidine hydrochloride], the “disruption of PRMT1 oligomers by denaturant” value (PRMT1 [2]) was “substantially smaller than those values without guanidine hydrochloride” and the “highest Z-average of PRMT1 in presence of denaturant” value (PRMT1 [2]; 6 M guanidine hydrochloride, average of three runs of 25 scans) was 8.43 nm.
In the case of “Ac-SGRmeGKGGKGLGKGGAKRHRK [Ac-H4(1–20)R3me]”, the “PRMT1 enzymatic activity (CPM) vs PRMT1 concentration” value (PRMT1-WT [5]) is reported as “increase as higher-order oligomeric structures were formed”.
